Data published in patent US20120029071A1, “COMPOSITIONS AND METHODS FOR TREATING OR PREVENTING RADIATION INJURY” (THE JOHNS HOPKINS UNIVERSITY, priority 2008, published 2012).
Entries after “also recorded” stand apart in the source; their conditions may differ.

Columns and labels:
[1] = test system: hematopoietic stem cells and progenitors cell; assay: TBI induced hematopoietic injury, bone marrow clonogenic assay; format: in vivo, mice; details: bone marrow clonogenic assay after TBI, vs vehicle
Protocol: FIG. 4 is a graph quantitating TBI induced HP injury in mice after CDDO-me or vehicle treatment as assessed by bone marrow clonogenic assay.
To assess the protective effect of CDDO-Me on hematopoietic injury, bone marrow was analyzed in a clonogenic assay.

[2] = test system: GCLC, GCLm and NQO1 genes; assay: Expression of Nrf2 regulated antioxidant genes in multiple tissues post TBI by quantitative RT-PCR; format: in vivo, mice; details: small intestine, colon, lung, liver, kidney, salivary gland and other organs
Description: FIG. 5 is a table that quantifies Nrf2 regulated antioxidant defenses in multiple tissues of mice treated with CDDO-Me post TBI.

Nrf2−/− mice = assay: TBI induced mortality in Nrf2-/- mice after CDDO-Me treatment; format: in vivo; details: treated 1 hour post-TBI
Protocol: (§1) FIG. 2 includes three graphs, which provide proof of concept studies with Nrf2 activator, showing quantitation of TBI induced Mortality in Nrf2−/− mice and Nrf2+/+ mice after CDDO-me (small molecule Nrf2 activator) or vehicle treatment. One hour and 24 hours after TBI mice (n=10/gp) mice were treated with CDDO-Me. Survival was monitored for 30 days.
(§2) To determine if pharmacological activation of Nrf2 improves survival following TBI, we treated Nrf2+/+ and Nrf2−/− with the small molecule, CDDO-Me, a potent Nrf2 activator 1 hour and 24 hours after TBI.

mice = assay: TBI induced gastrointestinal (GI) injury: villi morphology and crypt cell proliferation (BrdU); format: in vivo; details: treatment post 1 h TBI, day 9 post TBI, vs vehicle; for mucosal injury (length of villi): histopathology
Protocol: FIGS. 3A-3D show TBI induced GI injury in Nrf2+/+ and Nrf2−/− mice after CDDO-me or vehicle treatment. One hour after TBI […] mice (n=10/gp) mice were treated with CDDO-Me. GI injury was assessed by mucosal damage by histopathalogical analysis (FIGS. 3A and 3B) and crypt cell proliferation by BrdU immunohistochemistry staining (FIGS. 3C and 3D).
To analyze the GI injury, villi morphology and proliferation of crypt cells were quantified by immunohistochemistry and BrdU labeling on day 9 post TBI.

Nrf2+/+ mice = assay: TBI induced mortality in Nrf2+/+ mice after CDDO-Me treatment; format: in vivo; details: for mortality: survival monitored for 30 days, vehicle 100% mortality
Protocol: as §1, §2

Compound: COC(=O)[C@]12CCC(C)(C)C[C@H]1[C@H]1C(=O)C=C3[C@@]4(C)C=C(C#N)C(=O)C(C)(C)[C@@H]4CC[C@@]3(C)[C@]1(C)CC2 [CDDO-Me]
- protection of hematopoietic stem cells and progenitors (granulocyte/macrophage colony forming cells) [1]: markedly protected hematopoietic stem cells and progenitors cell
- expression of antioxidant genes (GCLC, GCLm, NQO1) [2]: markedly upregulated antioxidant genes
- survival following TBI (Nrf2−/− mice): failed to improve survival
- crypt cell proliferation (BrdU staining) (mice; BrdU immunohistochemistry): significantly mitigated loss of crypt cells; also recorded: marked improvement in crypt cell proliferation
- mucosal injury (length of villi) (mice): significantly mitigated reduction in gastrointestinal villi
- mucosal injury (length of villi) (mice; listed as CDDO-me): markedly ameliorated mucosal injury
- TBI induced mortality (Nrf2+/+ mice; treated 1 hour and 24 hours after TBI, vs vehicle): markedly inhibited TBI induced mortality
- mortality (Nrf2+/+ mice; treated 1 hour post-TBI): 0%
- mortality (Nrf2+/+ mice; treated 24 hours post-TBI): 25%
